From patent US5280047A, “2-(4-substituted)phenylmethylene derivatives and methods of use” (G. D. Searle & Co., priority 1993, dated 1994)
Several values for one entry are separate records, joined by “and”; a condition that tells them apart may be missing. Identical values can stand only once. Like-named read-outs stand apart in the source and are kept apart here.

Biological target: T1, 5-lipoxygenase (Rattus norvegicus, UniProt P12527)
T1 construct: supernatant fraction of Rat Basophilic Leukemia Cell Homogenate (RBL-1) serves as a 5-lipoxygenase enzyme source; endogenous in cells; host or cells: RBL-1 (rat basophilic leukemia) cells, 100,000 x g supernatant of the homogenate
T1 sequence (P12527 1-673): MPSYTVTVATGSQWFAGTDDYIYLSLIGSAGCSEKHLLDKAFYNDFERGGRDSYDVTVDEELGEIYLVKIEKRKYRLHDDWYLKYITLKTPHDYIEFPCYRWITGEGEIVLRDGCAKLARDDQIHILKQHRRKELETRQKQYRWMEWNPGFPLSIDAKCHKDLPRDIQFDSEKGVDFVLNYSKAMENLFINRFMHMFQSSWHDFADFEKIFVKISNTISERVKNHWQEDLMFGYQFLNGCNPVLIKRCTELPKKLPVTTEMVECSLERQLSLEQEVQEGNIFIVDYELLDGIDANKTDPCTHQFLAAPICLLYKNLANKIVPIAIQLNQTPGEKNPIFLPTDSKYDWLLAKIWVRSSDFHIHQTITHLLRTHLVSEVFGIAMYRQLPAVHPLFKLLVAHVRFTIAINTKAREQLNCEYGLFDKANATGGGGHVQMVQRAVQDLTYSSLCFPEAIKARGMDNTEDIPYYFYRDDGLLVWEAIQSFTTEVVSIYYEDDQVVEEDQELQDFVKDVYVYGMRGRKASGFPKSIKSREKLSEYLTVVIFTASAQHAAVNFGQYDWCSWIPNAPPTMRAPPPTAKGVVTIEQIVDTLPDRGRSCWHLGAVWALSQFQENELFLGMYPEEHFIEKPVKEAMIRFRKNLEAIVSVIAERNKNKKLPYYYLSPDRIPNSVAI
Assay: Inhibition of 5-lipoxygenase, in vitro (5-HETE synthesis, RBL-1 100,000 x g supernatant)
Type: biochemical
Settings: for inhibition at 100 µM: RBL-1 supernatant, 5-HETE synthesis
Procedure: The compounds of the invention are evaluated with respect to 5-lipoxygenaseinhibition according to the following assay procedure.
Inhibition of 5-lipoxygenase, in vitro : anti-inflammatory, anti-allergy activities.
The 100,000 x g supernatant fraction of Rat Basophilic Leukemia Cell Homogenate (RBL-1) serves as a 5-lipoxygenase enzyme source. The enzyme is incubated with [1-^14 C)-arachidonic acid and Ca++ in the presence and absence of test compound. The product of 5-lipoxygenase, 5-hydroxyeicosatetraenoic acid (5-HETE), is separated by thin-layer chromatography and measured by radioactivity.
When more than one result is listed, this indicates the results from additional tests.

[1] = Rat Basophilic Leukemia Cell Homogenate (RBL-1) supernatant, [1-14C]-arachidonic acid and Ca++, several values = results from additional tests, read-out: 5-Lipoxygenase Inhibition IC50

Row | Compound | IC50 [1] | further results
1 | CCCCCCCCc1ccc(/C=C/C(C)=O)cc1 [Example 8, 4-(4-octylphenyl)-3E-buten-2-one] |  | IC50: 100 µM
2 | CCOC(=O)/C(=C\c1ccc(Cl)cc1)C(C)=O [Example 6F, Ethyl 2Z-[(4-chlorophenyl)methylene]-3-oxobutanoate] | 56 µM | 
3 | CCOC(=O)/C(=C/c1ccc(Cl)cc1)C(C)=O [Example 6E, Ethyl 2E-[(4-chlorophenyl)methylene]-3-oxobutanoate] | 47 µM | 
4 | CCCCCCc1ccc(C=C(C(=O)OCC)C(=O)OCC)cc1 [Example 10, Diethyl 2-[(4-hexylphenyl)methylene]propanedioate] | 100 µM | 
5 | CCCCCCc1ccc(/C=C(/C(C)=O)C(=O)OCC)cc1 [Example 1B, Ethyl 2Z-[(4-hexylphenyl)methylene]-3-oxobutanoate] | 7.6 µM and 5.9 µM | 
6 | CCCCCCCCc1ccc(C=C(C(C)=O)C(C)=O)cc1 [Example 5, 3-[(4-octylphenyl)methylene]-2,4-pentanedione] | 4.4 µM | 
7 | CCCCCCCCc1ccc(/C=C(\C(C)=O)C(=O)OCC)cc1 [Example 3C, Ethyl 2E-[(4-octylphenyl)methylene]-3-oxobutanoate] | 5.9 µM and 14 µM | 
8 | CCCCCCCCc1ccc(C=C(C(=O)OCC)C(=O)OCC)cc1 [Example 4, Diethyl 2-[(4-octylphenyl)methylene]propanedioate] |  | inhibition at 100 µM: 45.6%
9 | CCCCCCc1ccc(/C=C/C(C)=O)cc1 [Example 9, 4-(4-hexylphenyl)-3E-buten-2-one] | 100 µM | 
10 | CCCCCCc1ccc(/C=C(\C(C)=O)C(=O)OCC)cc1 [Example 1A, Ethyl 2E-[(4-hexylphenyl)methylene]-3-oxobutanoate] | 3 µM and 7.9 µM and 15 µM | 
11 | CCCCCCCCc1ccc(/C=C(/C(C)=O)C(=O)OCC)cc1 [Example 3D, Ethyl 2Z-[(4-octylphenyl)methylene]-3-oxobutanoate] |  | inhibition at 100 µM: 42%
12 | CCCCCCc1ccc(/C=C(/C(C)=O)C(=O)c2ccccc2)cc1 [Example 2, 2Z-[(4-hexylphenyl)methylene]-1-phenyl-1,3-butanedione] | 18 µM | 
13 | CCOC(=O)/C(=C/c1ccc([N+](=O)[O-])cc1)C(C)=O [Example 7G, Ethyl 2E-[(4-nitrophenyl)methylene]-3-oxobutanoate] | 74 µM | 
14 | CCOC(=O)/C(=C\c1ccc([N+](=O)[O-])cc1)C(C)=O [Example 7H, Ethyl 2Z-[(4-nitrophenyl)methylene]-3-oxobutanoate] | 78 µM | 
